The source of these data is patent publication US20250179478A1, “FLUORESCENT METABOLICALLY INCORPORATED NUCLEOSIDES FOR LIVE CELL IMAGING OF RN” (The Trustees of Princeton University, priority 2022, published 2025).

The target in one data set is T1, UCK2 (Homo sapiens, UniProt Q9BZX2).
T1 sequence (Q9BZX2 1-261): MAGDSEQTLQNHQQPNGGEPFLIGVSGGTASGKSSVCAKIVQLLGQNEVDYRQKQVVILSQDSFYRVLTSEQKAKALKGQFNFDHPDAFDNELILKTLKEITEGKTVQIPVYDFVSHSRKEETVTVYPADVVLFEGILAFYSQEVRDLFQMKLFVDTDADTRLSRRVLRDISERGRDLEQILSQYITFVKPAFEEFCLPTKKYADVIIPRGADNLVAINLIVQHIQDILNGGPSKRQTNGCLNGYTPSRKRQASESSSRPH
Description: HPLC-based in vitro phosphorylation by recombinant purified UCK2. Type of data set: biochemical. Conditions: even after extended reaction times. The source says: To further understand the incorporation of bulky fluorescent nucleosides into cellular RNA and the involvement of UCK2 in this process, the phosphorylation of modified nucleosides by recombinant, purified UCK2 was studied using an HPLC-based in vitro assay.

The subject of data set [1] is HeLa cells expressing ribonucleoside kinase UCK2 (WT or Y65G). Description: Epifluorescence microscopy of fluorescent nucleoside incorporation in HeLa cells with inducible UCK2. The class given is cell-based, human. The settings on record: 500 μM, 12 hr, HeLa cells overexpressing WT or Y65G UCK2, DAPI filter set. The method, then: The method may also include inducing 130 the inducible promoter to overexpress the WT or mutant ribonucleoside kinase UCK2. This may be accomplished by, e.g., exposing the cells to the inducing agent for an appropriate amount of time. In some examples disclosed herein, for nucleoside labeling experiments in Flp-In Hela cells overexpressing UCK2, HeLa cells were seeded at 0.4×10^6 cells per well in 35 mm glass bottom petri dishes. After 16 hours, cells were induced for 16 hours with 1 μg/mL tetracycline.
In some embodiments, the method may include exposing 140 the plurality of live cells to a first quantity of the fluorescent nucleoside for a first period of time. The first period of time is typically 1-24 hours, and may be, e.g., 6-12 hours. In some examples disclosed herein, after being exposed to tetracycline, the HeLa cells were treated with 500 μM of fluorescent nucleosides for 12 hours.
It was next evaluated whether the fluorescent nucleosides could be incorporated into living cells. For this purpose, HeLa cells expressing ribonucleoside kinase UCK2 under the control of a tetracycline-inducible promoter (i.e., Flp-In T-Rex system) were used. The incorporate was monitored using fluorescence microscopy and quantitative nucleoside LC-QQQ-MS. The T-Rex system provides a convenient method to analyze the effect of UCK2 expression on nucleoside incorporation. Previously, it has been shown that UCK2 is rate limiting for the metabolic incorporation of modified pyrimidines through salvage pathways.
(§1) To test nucleoside incorporation, HeLa cells were treated with 500 μM of each fluorescent nucleoside for 12 hr and then imaged cells by epifluorescence microscopy after washing out free nucleoside. A DAPI filter set (375 nm, 435 nm) was chosen due to its availability on most fluorescence microscopes and since the excitation and emission band pass wavelengths overlapped with the spectra of each of the synthetic nucleosides, although the degree of overlap varies considerably based upon the nucleoside structure. Further, it was tested whether induction of UCK2 expression (WT or Y65G mutant) affects incorporation levels. […] Fluorescence signal was concentrated in the nucleus, but was also found in the cytoplasm, consistent with RNA incorporation.
First, feeding was performed in the presence of actinomycin D (ActD), a potent inhibitor of RNA polymerase I and II. […] In addition, total cellular RNA was isolated and nucleoside LC-QQQ-MS was performed after digestion and dephosphorylation to nucleosides. […] This system should be suitable for live-cell imaging of the bulk RNA population.

A short description of data set [2]: Photophysical properties of fluorescent nucleosides (extinction coefficient, quantum yield). The class given is physicochemical.
Another data set has as its system HeLa cells. Description: Cytotoxicity seen during nucleoside labeling of HeLa cells. Conditions: 500 μM, 12 hr. The class given is cell-based, human. As to the method: as §1

Structures are written as SMILES.

Regarding `CCN(CC)c1ccc2c(c1)Nc1nc(=O)n([C@@H]3O[C@H](CO)[C@@H](O)[C@H]3O)cc1S2` [^DEAtC], at UCK2, the “phosphorylation by UCK2, extended reaction times” value is given as “no phosphorylation”. Moreover, the fluorescent cellular labeling result in data set [1] is given as “not observed”. For the same molecule, in data set [2] (free nucleoside, tC 513 nm in 1× PBS pH 7.4, DEAtC 493 nm, MeOtC 550 nm), the “fluorescence quantum yield Φem, free nucleoside” value is listed as 0.006. Further, the “fluorescence quantum yield Φem in matched duplex DNA / dsDNA” value in data set [2] (tC 513 nm, DEAtC 500 nm, MeOtC 532 nm) is recorded as 0.12. In the data set on HeLa cells, the cytotoxicity entry is “significant cytotoxicity”.
